These results are taken from patent US20240246964A1 (Arbutus Biopharma Corporation, priority 2021, published 2024).

Molecules are shown by their SMILES.

The target of experiment [1] is PD-L1 His protein / PD-1 Fc protein (Homo sapiens (Human), UniProt Q9NZQ7). Description: HTRF Assay (PD-1/PD-L1 interaction). The format is binding. The settings on record: PD-L1 His 6 nM, PD-1 Fc 6 nM.
The target in another experiment is human PD-L1 (Homo sapiens (Human), UniProt Q9NZQ7). The experiment in a line: T cell activation luciferase reporter cell culture system (T Cell Activation Assay). The settings on record: luciferase reporter assay; PD-L1 aAPC/CHO-K1 cells with PD-1 effector Jurkat T cells. The format is cell-based.
human PD-L1, sequence (Q9NZQ7 19-290): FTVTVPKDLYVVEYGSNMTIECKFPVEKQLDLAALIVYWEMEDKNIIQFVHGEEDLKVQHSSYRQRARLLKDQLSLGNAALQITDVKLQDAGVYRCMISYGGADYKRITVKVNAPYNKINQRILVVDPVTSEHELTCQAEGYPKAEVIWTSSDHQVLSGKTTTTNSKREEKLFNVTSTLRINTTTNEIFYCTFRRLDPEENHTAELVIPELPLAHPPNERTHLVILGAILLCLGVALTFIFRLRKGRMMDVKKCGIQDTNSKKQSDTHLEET

PD-L1 His protein / PD-1 Fc protein, sequence (Q9NZQ7 19-238): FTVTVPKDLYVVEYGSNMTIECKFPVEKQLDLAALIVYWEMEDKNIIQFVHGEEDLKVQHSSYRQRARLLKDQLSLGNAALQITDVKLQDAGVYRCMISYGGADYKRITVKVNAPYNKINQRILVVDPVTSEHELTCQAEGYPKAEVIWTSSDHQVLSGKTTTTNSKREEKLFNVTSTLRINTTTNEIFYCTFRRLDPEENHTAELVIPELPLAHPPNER

Take `COCC(=O)N1CCC(NCc2ccc(-c3nccc(-c4cccc(-c5ccc(CNC6CCN(C(=O)COC)CC6)c(OC)n5)c4Cl)c3Cl)cc2OC)CC1` [Example 397, 1-(4-(((6-(2-Chloro-3-(3-chloro-2-(3-methoxy-4-(((1-(2-methoxyacetyl)piperidin-4-yl)amino)methyl)phenyl)pyridin-4-yl)phenyl)-2-methoxypyridin-3-yl)methyl)amino)piperidin-1-yl)-2-methoxyethan-1-one]: the IC50 in experiment [1] is 0.128 nM. This compound also had a 50% effective concentration (EC50) at human PD-L1 of 5.71 nM.
Taken in the same sequence, the figures for `COc1cc(-c2nccc(-c3cccc(-c4ccc(CN5CC6(CCC(=O)N6)C5)c(OC)n4)c3Cl)c2Cl)ccc1CN1CC2(CCC(=O)N2)C1` [Example 398, 2-((6-(2-Chloro-3-(3-chloro-2-(3-methoxy-4-((6-oxo-2,5-diazaspiro[3.4]octan-2-yl)methyl)phenyl)pyridin-4-yl)phenyl)-2-methoxypyridin-3-yl)methyl)-2,5-diazaspiro[3.4]octan-6-one] were 0.278 nM and 8.54 nM.
Taken in the same sequence, the figures for `COc1cc(-c2nccc(-c3cccc(-c4ccc(CNC5CCN(C(C)=O)CC5)c(OC)n4)c3C)c2Cl)ccc1CNC1CCN(C(C)=O)CC1` [Example 399, 1-(4-(((6-(3-(2-(4-(((1-acetylpiperidin-4-yl)amino)methyl)-3-methoxyphenyl)-3-chloropyridin-4-yl)-2-methylphenyl)-2-methoxypyridin-3-yl)methyl)amino)piperidin-1-yl)ethan-1-one] were 0.185 nM and 77.7 nM.
As for `COc1cc(-c2nccc(-c3cccc(-c4ccc(CN5CC6(CNC(=O)C6)C5)c(OC)n4)c3Cl)c2Cl)ccc1CN1CCC(NC(C)=O)CC1` [Example 400, N-(1-(4-(3-chloro-4-(2-chloro-3-(6-methoxy-5-((7-oxo-2,6-diazaspiro[3.4]-octan-2-yl)methyl)pyridin-2-yl)-phenyl)pyridin-2-yl)-2-methoxybenzyl)piperidin-4-yl)acetamide], in experiment [1], half-maximal inhibition (IC50) was put at 0.272 nM. Also, the EC50 on human PD-L1 turned out to be 16.4 nM.
Taken in the same sequence, the figures for `COc1cc(-c2nccc(-c3cccc(-c4ccc(CNC[C@H]5CNC(=O)C5)c(OC)n4)c3Cl)c2Cl)ccc1CNC[C@H]1CNC(=O)C1` [Example 405, (S)-4-((((6-(2-Chloro-3-(3-chloro-2-(3-methoxy-4-(((((S)-5-oxopyrrolidin-3-yl)methyl)amino)methyl)phenyl)pyridin-4-yl)phenyl)-2-methoxypyridin-3-yl)methyl)amino)methyl)pyrrolidin-2-one] were 0.237 nM and 24 nM.
In experiment [1], `COCC(=O)N1CCC(NCc2ccc(-c3nccc(-c4cccc(-c5ccc(CNC6CCN(C(C)=O)CC6)c(OC)n5)c4Cl)c3Cl)cc2OC)CC1` [Example 413, 1-(4-((4-(4-(3-(5-(((1-Acetylpiperidin-4-yl)amino)methyl)-6-methoxypyridin-2-yl)-2-chlorophenyl)-3-chloropyridin-2-yl)-2-methoxybenzyl)amino)piperidin-1-yl)-2-methoxyethan-1-one] showed an IC50 of 1.45 nM. The same compound came in with an EC50 at human PD-L1 of 16.1 nM.
Taken in the same sequence, the figures for `COc1cc(-c2nccc(-c3cccc(-c4ccc(CNC[C@@H]5CCC(=O)N5)c(OC)n4)c3Cl)c2C)ccc1CNC[C@@H]1CCC(=O)N1` [Example 414, (S)-5-((((6-(2-Chloro-3-(2-(3-methoxy-4-(((((S)-5-oxopyrrolidin-2-yl)methyl)amino)methyl)phenyl)-3-methylpyridin-4-yl)phenyl)-2-methoxypyridin-3-yl)methyl)amino)methyl)pyrrolidin-2-one] were 1.58 nM and 29.4 nM.
For `COc1cc(-c2nccc(-c3cccc(-c4ccc(CN5CC6(CNC(=O)C6)C5)c(OC)n4)c3C)c2C)ccc1CN1CC2(CNC(=O)C2)C1` [Example 415, 2-((2-methoxy-6-(3-(2-(3-methoxy-4-((7-oxo-2,6-diazaspiro[3.4]octan-2-yl)methyl)phenyl)-3-methylpyridin-4-yl)-2-methylphenyl)pyridin-3-yl)methyl)-2,6-diazaspiro[3.4]octan-7-one], in that order: 0.25 nM and 5100 nM.
For the compound `COc1cc(-c2nccc(-c3cccc(-c4ccc(CN5CC6(C5)CN(C(C)=O)C6)c(OC)n4)c3C)c2C)ccc1CN1CC2(C1)CN(C(C)=O)C2` [Example 416, 1-(6-((6-(3-(2-(4-((6-Acetyl-2,6-diazaspiro[3.3]heptan-2-yl)methyl)-3-methoxyphenyl)-3-methylpyridin-4-yl)-2-methylphenyl)-2-methoxypyridin-3-yl)methyl)-2,6-diazaspiro[3.3]heptan-2-yl)ethan-1-one], in experiment [1], the half-inhibitory concentration (IC50) is 6.6 nM. For the same compound, on human PD-L1, the concentration giving a half-maximal response (EC50) is not below 10000 nM.
For `COc1cc(-c2nccc(-c3cccc(-c4ccc(CNC5CCN(C(C)=O)CC5)c(OC)n4)c3Cl)c2Cl)ccc1CNC1CCNCC1` [Example 417, 1-(4-(((6-(2-chloro-3-(3-chloro-2-(3-methoxy-4-((piperidin-4-ylamino)methyl)phenyl)pyridin-4-yl)phenyl)-2-methoxypyridin-3-yl)methyl)amino)piperidin-1-yl)ethan-1-one], in that order: 3.67 nM and 58.3 nM.
For `COc1cc(-c2nccc(-c3cccc(-c4ccc(CNC5CCN(C(=O)c6ccco6)CC5)c(OC)n4)c3Cl)c2Cl)ccc1CNC1CCN(C(=O)c2ccco2)CC1` [Example 421, (4-(((6-(2-Chloro-3-(3-chloro-2-(4-(((1-(furan-2-carbonyl)piperidin-4-yl)amino)methyl)-3-methoxyphenyl)pyridin-4-yl)phenyl)-2-methoxypyridin-3-yl)methyl)amino)piperidin-1-yl)(furan-2-yl)methanone], in that order: 1.86 nM and 47.7 nM.
Taken in the same sequence, the figures for `COc1cc(-c2nccc(-c3cccc(-c4ccc(CNC5CCN(C(=O)c6ccccc6)CC5)c(OC)n4)c3Cl)c2Cl)ccc1CNC1CCN(C(=O)c2ccccc2)CC1` [Example 422, (4-(((6-(3-(2-(4-(((1-Benzoylpiperidin-4-yl)amino)methyl)-3-methoxyphenyl)-3-chloropyridin-4-yl)-2-chlorophenyl)-2-methoxypyridin-3-yl)methyl)amino)piperidin-1-yl)(phenyl)methanone] were 0.9 nM and 75.5 nM.
In experiment [1], `COc1cc(-c2nccc(-c3cccc(-c4ccc(CNC5CCN(c6ccccc6)CC5)c(OC)n4)c3Cl)c2Cl)ccc1CNC1CCN(c2ccccc2)CC1` [Example 423, N-((6-(2-Chloro-3-(3-chloro-2-(3-methoxy-4-(((1-phenylpiperidin-4-yl)amino)methyl)phenyl)pyridin-4-yl)phenyl)-2-methoxypyridin-3-yl)methyl)-1-phenylpiperidin-4-amine] displayed an IC50 of 7.78 nM. In addition, the EC50 on human PD-L1 turned out to be 354 nM.
In the case of `COc1cc(-c2nccc(-c3cccc(-c4ccc(CNC5CCN(c6ccncc6)CC5)c(OC)n4)c3Cl)c2Cl)ccc1CNC1CCN(c2ccncc2)CC1` [Example 424, N-((6-(2-Chloro-3-(3-chloro-2-(3-methoxy-4-(((1-(pyridin-4-yl)piperidin-4-yl)amino)methyl)phenyl)pyridin-4-yl)phenyl)-2-methoxypyridin-3-yl)methyl)-1-(pyridin-4-yl)piperidin-4-amine], in experiment [1], the IC50 is 3.59 nM. For the same compound, on human PD-L1, the midpoint of the response, the EC50, lay at 86.6 nM.
